Columns and labels:
[1] = tested on: SBD derived from experimental head injury; assay: MRI diagnosis of cerebral injuries after drop-weight impact (SBD model); type: in vivo, rat; conditions: rats, 3 mg/kg i.p. before impact of 50 cm·g; 1 hr post-impact
Description: (§1) Male Fisher rats weighing 400-450 g were anesthetized with sodium pentobarbital (Nembutal; Dainippon Pharmaceutical Co., Ltd., Osaka) by i.p. administration (40 mg/kg) before the head was restrained in a stereotaxic apparatus. Weight 20 of 5-gram mass positioned at a drop-distance of 10 cm was dropped onto the brain surface under gravitational force to generate an impact of 50 cm·g, causing a head injury. Follow-up studies of the progress of subsequent events from 1 to 48 hours post-impact were monitored with the MRI approach.
(§2) Immediately after impact, MRI diagnoses were conducted to categorize animals as (i) no injuries, (ii) no subarachinoid hemorrhage and (iii) external wounds and hemorrhages inflicted on brain surface, etc. Animals having such criteria were omitted from subsequent studies. Animals with confirmed cerebral injuries but without these criteria were divided into groups of six each.

[2] = tested on: pyramidal cells of hippocampal CA1 field; assay: Viable pyramidal cell counts per unit area, hippocampal CA1 field, after drop-weight impact; type: in vivo, rat; conditions: rats, 3 mg/kg i.p. before impact
Description: as §1, §2
Along with MRI findings from 1 to 48 hours post-impact, brain injuries were also evaluated histopathologically using the cardioperfusion method with 200 mL of physiological saline (0.9 w/w %) to first remove blood cells followed by fixation with 50 mL of 0.1 MPBS (pH: 7.4) containing 4% paraformaldehyde (PFA). Brain tissues were then embedded in paraffin and coronal sections of the brain specimens were sectioned before staining with the hematoxylin-eosin (H&E) reagent.
With regard to the therapeutic effects of chemical agents tested, viable pyramidal cell counts per unit area (1 mm^2) of tissues in hippocampal CA1 and CA3 fields were determined to derive the area of tissue damage/injury using image-analysis software (NIH Co., Ltd.; Image Ver. 1.55). As for the extent of tissue damage, slices with the maximum damage area between two groups were compared.

[3] = tested on: pyramidal cells of hippocampal CA3 field; assay: Viable pyramidal cell counts per unit area, hippocampal CA3 field, after drop-weight impact; type: in vivo, rat; conditions: rats, 3 mg/kg i.p. before impact
Description: as §1
Immediately after impact, MRI diagnoses were conducted to categorize animals as (i) no injuries, (ii) no subarachinoid hemorrhage and (iii) external wounds and hemorrhages inflicted on brain surface, etc. Animals having such criteria were omitted from subsequent studies. […]
Along with MRI findings from 1 to 48 hours post-impact, brain injuries were also evaluated histopathologically using the cardioperfusion method with 200 mL of physiological saline (0.9 w/w %) to first remove blood cells followed by fixation with 50 mL of 0.1 MPBS (pH: 7.4) containing 4% paraformaldehyde (PFA). […]
With regard to the therapeutic effects of chemical agents tested, viable pyramidal cell counts per unit area (1 mm^2) of tissues in hippocampal CA1 and CA3 fields were determined to derive the area of tissue damage/injury using image-analysis software (NIH Co., Ltd.; Image Ver. 1.55). […]

[4] = tested on: SBD generated with the drop weight apparatus; assay: MRI findings and cerebral blood flow (CBF) velocity after drop-weight impact (240 cm·g); type: in vivo, dog; conditions: dogs
Description: (§3) Eight healthy 4-year-old male Beagle dogs were anesthetized before a square piece of skull (1.2×1.2 cm^2) was craniectomized. As two different cerebral injuries were involved in the study, a unilateral parietal bone was drilled and the brain surface surgically exposed without removing the dura mater. In two randomized dogs, a self-designed 5-mm spherical DCN with reproducibility was applied to generate concussion (CC in Table 1). In the remaining four dogs, the WD method was employed under the following experimental conditions: a weight of 12-g mass with a drop-distance of 20 cm to generate an impact of 240 cm·g.
(§4) MRI findings were performed with superconductor magnetism of magnetic field intensity 0.5T (Flexart MRT-50GP; Toshiba Medical Co., Ltd.). CBF velocities of DCN (n=2) and drop-weight-inflicted (n=4) dogs (including craniectomized skull-replaced dogs) were measured via MRI using the 3D-phase shift magnetic resonance angiography with presaturation pulse (PAMRA: TE=25, TR=10). Craniectomized skull-chips were replaced and kept in position with adhesive.

[5] = tested on: direct contusion nest (DCN) injury; assay: MRI findings and cerebral blood flow (CBF) velocity after direct contusion nest (DCN); type: in vivo, dog
Description: as §3, §4

In the case of C[C@]12N[C@H](Cc3ccccc31)c1ccccc12 [MK-801], the “T2-weighted high-signal and T1-weighted low-signal areas (MRI)” value [1] is reported as “expanded”, the “suppression of SBD exacerbation (viable cell counts 48 hr vs 1 hr post-impact)” value [2] is reported as “could not completely suppress SBD exacerbation” and the “viable pyramidal cell counts per unit area, CA1 field, decrease compared with the control group” value ([2]; 1 hr post-impact, non-treated 59.2%) is reported as 66.4%. For the same molecule, the “viable pyramidal cell counts per unit area, CA1 field, decrease compared with the control group” value ([2]; 48 hr post-impact, non-treated 44.5%) was 54.8%, the “viable pyramidal cell counts per unit area, CA3 field, decrease (rate)” value ([3]; 1 hr post-impact, non-treated 45.9%) was 63.0% and the “viable pyramidal cell counts per unit area, CA3 field, decrease (rate)” value ([3]; 48 hr post-impact, non-treated 37.6%) was 61.2%. For the same molecule, the “time-related expansion of damage after impact (MRI)” value ([4]; drop weight group with drug pretreatment, 240 cm·g) was “not established”, the “SBD development (CBF peak at 3 hr after impact)” value ([4]; drop-weight-inflicted, drug-pretreated group) was “effectively suppressed SBD development” and the “CBF after the high values registered immediately after impact” value ([5]; dogs subjected to DCN, drug-treated group (same as non-treated)) was “no subsequent changes thereafter”. For the same molecule, the “damage field with time (MRI)” value ([5]; dogs, DCN group with drug pretreatment) was “damage area had expanded”.
